Laboratory results from patent US12637473B2, “MDM2 protein degraders” (THE REGENTS OF THE UNIVERSITY OF MICHIGAN, priority 2016, dated 2026).

test system: RS4; 11 cell line; assay: CellTiter-Glo Luminescent Cell Viability Assay, cell growth inhibition; format: cell-based; settings: Homo sapiens, 96 h, 4 days
Experimental: Cell growth inhibitory activity of representative MDM2 protein degraders was determined using CellTiter-Glo® Luminescent Cell Viability Assay. Cells were seeded in 384-well white opaque cell culture plates at a density of 2,000 cells/well with serially diluted compounds and incubated at 37° C. in an atmosphere of 95% air and 5% CO2 for 4 days. Cell viability was determined using the CellTiter-Glo® Luminescent Cell Viability Assay Kit (Promega, Madison, WI) according to the manufacture's instruction. Briefly, a volume of CellTiter-Glo® Reagent equal to the volume of cell culture medium was added to each well, and then the plates were incubated at room temperature for 10-20 minutes. The luminescent signal was measured using a Tecan Infinite M1000 multimode microplate reader (Tecan, Morrisville, NC). The half maximal inhibitory concentration (IC50) was calculated using the GraphPad Prism 5 software (GraphPad Software, La Jolla, CA). Cpd. […] The structure of Cpd.

Row | SMILES | IC50
1 | O=C1CCC(N2C(=O)c3cccc(NCCCCCNC(=O)c4ccc(NC(=O)[C@@H]5NC6(CCCCC6)[C@@]6(C(=O)Nc7cc(Cl)ccc76)[C@H]5c5cccc(Cl)c5F)cc4)c3C2=O)C(=O)N1 (stereo partly drawn) [Cpd. No. 10, (3′R,4'S,5′R)-6″-chloro-4′-(3-chloro-2-fluorophenyl)-N-(4-((5-((2-(2,6-dioxopiperidin-3-yl)-1,3-dioxoisoindolin-4-yl)amino)pentyl)carbamoyl)phenyl)-2″-oxodispiro[cyclohexane-1,2′-pyrrolidine-3′,3″-indoline]-5′-carboxamide] | 12 nM
2 | O=C1CCC(N2C(=O)c3cccc(NCCCCCCCNC(=O)c4ccc(NC(=O)[C@@H]5NC6(CCCCC6)[C@@]6(C(=O)Nc7cc(Cl)ccc76)[C@H]5c5cccc(Cl)c5F)cc4)c3C2=O)C(=O)N1 (stereo partly drawn) [Cpd. No. 12, (3′R,4'S,5′R)-6″-chloro-4′-(3-chloro-2-fluorophenyl)-N-(4-((7-((2-(2,6-dioxopiperidin-3-yl)-1,3-dioxoisoindolin-4-yl)amino)heptyl)carbamoyl)phenyl)-2″-oxodispiro[cyclohexane-1,2′-pyrrolidine-3′,3″-indoline]-5′-carboxamide] | 100 nM
3 | O=C1CCC(N2C(=O)c3cccc(NCCCOCCOCCOCCCNC(=O)c4ccc(NC(=O)[C@@H]5NC6(CCCCC6)[C@@]6(C(=O)Nc7cc(Cl)ccc76)[C@H]5c5cccc(Cl)c5F)nc4)c3C2=O)C(=O)N1 (stereo partly drawn) [Cpd. No. 25, (3′R,4'S,5′R)-6″-chloro-4′-(3-chloro-2-fluorophenyl)-N-(5-((3-(2-(2-(3-((2-(2,6-dioxopiperidin-3-yl)-1,3-dioxoisoindolin-4-yl)amino)propoxy)ethoxy)ethoxy)propyl)carbamoyl)pyridin-2-yl)-2″-oxodispiro[cyclohexane-1,2′-pyrrolidine-3′,3″-indoline]-5′-carboxamide] | 7.4 nM
4 | O=C1CCC(N2C(=O)c3cccc(NCCOCCOCCNC(=O)c4ccc(NC(=O)[C@@H]5NC6(CCCCC6)[C@@]6(C(=O)Nc7cc(Cl)ccc76)[C@H]5c5cccc(Cl)c5F)cn4)c3C2=O)C(=O)N1 (stereo partly drawn) [Cpd. No. 26, (3′R,4'S,5′R)-6″-chloro-4′-(3-chloro-2-fluorophenyl)-N-(6-((2-(2-(2-((2-(2,6-dioxopiperidin-3-yl)-1,3-dioxoisoindolin-4-yl)amino)ethoxy)ethoxy)ethyl)carbamoyl)pyridin-3-yl)-2″-oxodispiro[cyclohexane-1,2′-pyrrolidine-3′,3″-indoline]-5′-carboxamide] | 8 nM
5 | O=C1CCC(N2C(=O)c3cccc(NCCCOCCOCCOCCCNC(=O)c4ccc(NC(=O)[C@@H]5NC6(CCCCC6)[C@@]6(C(=O)Nc7cc(Cl)ccc76)[C@H]5c5cccc(Cl)c5F)cn4)c3C2=O)C(=O)N1 (stereo partly drawn) [Cpd. No. 27, (3′R,4'S,5′R)-6″-chloro-4′-(3-chloro-2-fluorophenyl)-N-(6-((3-(2-(2-(3-((2-(2,6-dioxopiperidin-3-yl)-1,3-dioxoisoindolin-4-yl)amino)propoxy)ethoxy)ethoxy)propyl)carbamoyl)pyridin-3-yl)-2″-oxodispiro[cyclohexane-1,2′-pyrrolidine-3′,3″-indoline]-5′-carboxamide] | 4.6 nM
6 | O=C1CCC(N2Cc3c(NC(=O)CCCCNC(=O)c4ccc(NC(=O)[C@@H]5NC6(CCCCC6)[C@@]6(C(=O)Nc7cc(Cl)ccc76)[C@H]5c5cccc(Cl)c5F)cc4)cccc3C2=O)C(=O)N1 (stereo partly drawn) [Cpd. No. 28, (3′R,4'S,5′R)-6″-chloro-4′-(3-chloro-2-fluorophenyl)-N-(4-((5-((2-(2,6-dioxopiperidin-3-yl)-1-oxoisoindolin-4-yl)amino)-5-oxopentyl)carbamoyl)phenyl)-2″-oxodispiro[cyclohexane-1,2′-pyrrolidine-3′,3″-indoline]-5′-carboxamide] | 7 nM
7 | O=C1CCC(N2Cc3c(NC(=O)CCOCCOCCNC(=O)c4ccc(NC(=O)[C@@H]5NC6(CCCCC6)[C@@]6(C(=O)Nc7cc(Cl)ccc76)[C@H]5c5cccc(Cl)c5F)cc4)cccc3C2=O)C(=O)N1 (stereo partly drawn) [Cpd. No. 29, (3′R,4'S,5′R)-6″-chloro-4′-(3-chloro-2-fluorophenyl)-N-(4-((2-(2-(3-((2-(2,6-dioxopiperidin-3-yl)-1-oxoisoindolin-4-yl)amino)-3-oxopropoxy)ethoxy)ethyl)carbamoyl)phenyl)-2″-oxodispiro[cyclohexane-1,2′-pyrrolidine-3′,3″-indoline]-5′-carboxamide] | 15 nM
8 | O=C1CCC(N2Cc3c(NC(=O)CCOCCOCCOCCNC(=O)c4ccc(NC(=O)[C@@H]5NC6(CCCCC6)[C@@]6(C(=O)Nc7cc(Cl)ccc76)[C@H]5c5cccc(Cl)c5F)cc4)cccc3C2=O)C(=O)N1 (stereo partly drawn) [Cpd. No. 30, (3′R,4'S,5′R)-6″-chloro-4′-(3-chloro-2-fluorophenyl)-N-(4-((2-(2-(2-(3-((2-(2,6-dioxopiperidin-3-yl)-1-oxoisoindolin-4-yl)amino)-3-oxopropoxy)ethoxy)ethoxy)ethyl)carbamoyl)phenyl)-2″-oxodispiro[cyclohexane-1,2′-pyrrolidine-3′,3″-indoline]-5′-carboxamide] | 13 nM
9 | O=C1CCC(N2Cc3c(CCCCCNC(=O)c4ccc(NC(=O)[C@@H]5NC6(CCCCC6)[C@@]6(C(=O)Nc7cc(Cl)ccc76)[C@H]5c5cccc(Cl)c5F)cc4)cccc3C2=O)C(=O)N1 (stereo partly drawn) [Cpd. No. 31, (3′R,4'S,5′R)-6″-chloro-4′-(3-chloro-2-fluorophenyl)-N-(4-((5-(2-(2,6-dioxopiperidin-3-yl)-1-oxoisoindolin-4-yl)pentyl)carbamoyl)phenyl)-2″-oxodispiro[cyclohexane-1,2′-pyrrolidine-3′,3″-indoline]-5′-carboxamide] | 1.8 nM
10 | O=C1CCC(N2C(=O)c3cccc(CCCCCNC(=O)c4ccc(NC(=O)[C@@H]5NC6(CCCCC6)[C@@]6(C(=O)Nc7cc(Cl)ccc76)[C@H]5c5cccc(Cl)c5F)cc4)c3C2=O)C(=O)N1 (stereo partly drawn) [Cpd. No. 32, (3′R,4'S,5′R)-6″-chloro-4′-(3-chloro-2-fluorophenyl)-N-(4-((5-(2-(2,6-dioxopiperidin-3-yl)-1,3-dioxoisoindolin-4-yl)pentyl)carbamoyl)phenyl)-2″-oxodispiro[cyclohexane-1,2′-pyrrolidine-3′,3″-indoline]-5′-carboxamide] | 23 nM
11 | O=C1CCC(N2Cc3c(CCCOCCNC(=O)c4ccc(NC(=O)[C@@H]5NC6(CCCCC6)[C@@]6(C(=O)Nc7cc(Cl)ccc76)[C@H]5c5cccc(Cl)c5F)cc4)cccc3C2=O)C(=O)N1 (stereo partly drawn) [Cpd. No. 33, (3′R,4'S,5′R)-6″-chloro-4′-(3-chloro-2-fluorophenyl)-N-(4-((2-(3-(2-(2,6-dioxopiperidin-3-yl)-1-oxoisoindolin-4-yl)propoxy)ethyl)carbamoyl)phenyl)-2″-oxodispiro[cyclohexane-1,2′-pyrrolidine-3′,3″-indoline]-5′-carboxamide] | 2.9 nM
12 | O=C1CCC(N2C(=O)c3cccc(CCCOCCNC(=O)c4ccc(NC(=O)[C@@H]5NC6(CCCCC6)[C@@]6(C(=O)Nc7cc(Cl)ccc76)[C@H]5c5cccc(Cl)c5F)cc4)c3C2=O)C(=O)N1 (stereo partly drawn) [Cpd. No. 34, (3′R,4'S,5′R)-6″-chloro-4′-(3-chloro-2-fluorophenyl)-N-(4-((2-(3-(2-(2,6-dioxopiperidin-3-yl)-1,3-dioxoisoindolin-4-yl)propoxy)ethyl)carbamoyl)phenyl)-2″-oxodispiro[cyclohexane-1,2′-pyrrolidine-3′,3″-indoline]-5′-carboxamide] | 17.8 nM
13 | O=C1CCC(N2Cc3c(CCCOCCOCCNC(=O)c4ccc(NC(=O)[C@@H]5NC6(CCCCC6)[C@@]6(C(=O)Nc7cc(Cl)ccc76)[C@H]5c5cccc(Cl)c5F)cc4)cccc3C2=O)C(=O)N1 (stereo partly drawn) [Cpd. No. 35, (3′R,4'S,5′R)-6″-chloro-4′-(3-chloro-2-fluorophenyl)-N-(4-((2-(2-(3-(2-(2,6-dioxopiperidin-3-yl)-1-oxoisoindolin-4-yl)propoxy)ethoxy)ethyl)carbamoyl)phenyl)-2″-oxodispiro[cyclohexane-1,2′-pyrrolidine-3′,3″-indoline]-5′-carboxamide] | 5.7 nM
14 | O=C1CCC(N2C(=O)c3cccc(CCCOCCOCCNC(=O)c4ccc(NC(=O)[C@@H]5NC6(CCCCC6)[C@@]6(C(=O)Nc7cc(Cl)ccc76)[C@H]5c5cccc(Cl)c5F)cc4)c3C2=O)C(=O)N1 (stereo partly drawn) [Cpd. No. 36, (3′R,4'S,5′R)-6″-chloro-4′-(3-chloro-2-fluorophenyl)-N-(4-((2-(2-(3-(2-(2,6-dioxopiperidin-3-yl)-1,3-dioxoisoindolin-4-yl)propoxy)ethoxy)ethyl)carbamoyl)phenyl)-2″-oxodispiro[cyclohexane-1,2′-pyrrolidine-3′,3″-indoline]-5′-carboxamide] | 37.4 nM
15 | O=C1CCC(N2Cc3c(CCCOCCOCCOCCNC(=O)c4ccc(NC(=O)[C@@H]5NC6(CCCCC6)[C@@]6(C(=O)Nc7cc(Cl)ccc76)[C@H]5c5cccc(Cl)c5F)cc4)cccc3C2=O)C(=O)N1 (stereo partly drawn) [Cpd. No. 37, (3′R,4'S,5′R)-6″-chloro-4′-(3-chloro-2-fluorophenyl)-N-(4-((2-(2-(2-(3-(2-(2,6-dioxopiperidin-3-yl)-1-oxoisoindolin-4-yl)propoxy)ethoxy)ethoxy)ethyl)carbamoyl)phenyl)-2″-oxodispiro[cyclohexane-1,2′-pyrrolidine-3′,3″-indoline]-5′-carboxamide] | 3.8 nM
16 | O=C1CCC(N2C(=O)c3cccc(CCCOCCOCCOCCNC(=O)c4ccc(NC(=O)[C@@H]5NC6(CCCCC6)[C@@]6(C(=O)Nc7cc(Cl)ccc76)[C@H]5c5cccc(Cl)c5F)cc4)c3C2=O)C(=O)N1 (stereo partly drawn) [Cpd. No. 38, (3′R,4'S,5′R)-6″-chloro-4′-(3-chloro-2-fluorophenyl)-N-(4-((2-(2-(2-(3-(2-(2,6-dioxopiperidin-3-yl)-1,3-dioxoisoindolin-4-yl)propoxy)ethoxy)ethoxy)ethyl)carbamoyl)phenyl)-2″-oxodispiro[cyclohexane-1,2′-pyrrolidine-3′,3″-indoline]-5′-carboxamide] | 46 nM
